# In ChEMBL document CHEMBL1142784, “Discovery and in vitro evaluation of potent kinase inhibitors: Pyrido[1',2':1,5]pyrazolo[3,4-d]pyrimidines” (Bioorg Med Chem Lett, 2005):
# pIC50: −log10 of the molar value.
# Legend:
# [1] = biological target: Glycogen synthase kinase-3 (Homo sapiens, UniProt P49840+P49841); experiment: Inhibitory concentration against GSK3-beta by using [gamma-33P]-ATP as radioligand expressed in Escherichia coli in pH 7.2 for 19 min at room temperature
# [2] = biological target: Vascular endothelial growth factor receptor (Homo sapiens, UniProt P17948+P35916+P35968); experiment: Inhibitory concentration against VEGFR(10 nM) by using homogeneous time-resolved fluorescence detection in pH 7.5
# [3] = biological target: Receptor tyrosine-protein kinase erbB-2 (Homo sapiens, UniProt P04626); experiment: Inhibitory concentration against ErbB-2 protein tyrosine kinase by using [gamma-33P]-ATP as radioligand in pH 7.5
# Receptor tyrosine-protein kinase erbB-2, sequence (P04626 whole entry): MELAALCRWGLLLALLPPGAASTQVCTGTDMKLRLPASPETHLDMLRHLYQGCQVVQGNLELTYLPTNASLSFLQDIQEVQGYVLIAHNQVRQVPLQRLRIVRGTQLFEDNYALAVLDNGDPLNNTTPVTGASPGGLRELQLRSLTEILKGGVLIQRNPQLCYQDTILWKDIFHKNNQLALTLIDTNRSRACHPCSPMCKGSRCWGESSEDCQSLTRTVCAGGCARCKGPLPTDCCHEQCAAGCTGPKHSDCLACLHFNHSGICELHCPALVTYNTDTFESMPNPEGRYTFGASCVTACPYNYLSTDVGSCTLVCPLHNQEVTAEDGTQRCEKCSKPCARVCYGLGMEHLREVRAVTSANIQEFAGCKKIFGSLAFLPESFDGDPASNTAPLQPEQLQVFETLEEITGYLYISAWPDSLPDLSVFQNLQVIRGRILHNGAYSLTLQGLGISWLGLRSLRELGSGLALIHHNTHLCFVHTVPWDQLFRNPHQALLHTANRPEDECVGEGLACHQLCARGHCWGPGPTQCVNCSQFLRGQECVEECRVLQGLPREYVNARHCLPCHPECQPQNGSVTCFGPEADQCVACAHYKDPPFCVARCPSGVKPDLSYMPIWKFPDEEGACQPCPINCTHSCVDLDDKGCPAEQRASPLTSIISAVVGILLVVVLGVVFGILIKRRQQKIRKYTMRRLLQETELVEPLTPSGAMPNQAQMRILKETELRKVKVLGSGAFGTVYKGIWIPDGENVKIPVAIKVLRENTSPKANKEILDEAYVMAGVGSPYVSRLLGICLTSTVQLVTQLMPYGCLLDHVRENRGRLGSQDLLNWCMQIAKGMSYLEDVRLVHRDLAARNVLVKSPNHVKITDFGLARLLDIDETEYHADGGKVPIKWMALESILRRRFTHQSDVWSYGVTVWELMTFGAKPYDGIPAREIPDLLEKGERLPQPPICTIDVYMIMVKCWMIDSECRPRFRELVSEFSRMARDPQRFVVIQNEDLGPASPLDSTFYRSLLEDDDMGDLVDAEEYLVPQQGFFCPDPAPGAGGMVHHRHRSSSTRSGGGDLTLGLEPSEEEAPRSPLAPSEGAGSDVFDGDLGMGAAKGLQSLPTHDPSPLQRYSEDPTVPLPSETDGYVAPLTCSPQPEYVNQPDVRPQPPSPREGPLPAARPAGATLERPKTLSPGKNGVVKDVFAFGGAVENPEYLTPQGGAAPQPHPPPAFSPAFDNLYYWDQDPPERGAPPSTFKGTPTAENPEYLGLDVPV
# [4] = biological target: Epidermal growth factor receptor (Homo sapiens, UniProt P00533); experiment: Inhibitory concentration against EGFR by using [gamma-33P]-ATP as radioligand in pH 7.5
# Epidermal growth factor receptor, sequence (P00533 whole entry): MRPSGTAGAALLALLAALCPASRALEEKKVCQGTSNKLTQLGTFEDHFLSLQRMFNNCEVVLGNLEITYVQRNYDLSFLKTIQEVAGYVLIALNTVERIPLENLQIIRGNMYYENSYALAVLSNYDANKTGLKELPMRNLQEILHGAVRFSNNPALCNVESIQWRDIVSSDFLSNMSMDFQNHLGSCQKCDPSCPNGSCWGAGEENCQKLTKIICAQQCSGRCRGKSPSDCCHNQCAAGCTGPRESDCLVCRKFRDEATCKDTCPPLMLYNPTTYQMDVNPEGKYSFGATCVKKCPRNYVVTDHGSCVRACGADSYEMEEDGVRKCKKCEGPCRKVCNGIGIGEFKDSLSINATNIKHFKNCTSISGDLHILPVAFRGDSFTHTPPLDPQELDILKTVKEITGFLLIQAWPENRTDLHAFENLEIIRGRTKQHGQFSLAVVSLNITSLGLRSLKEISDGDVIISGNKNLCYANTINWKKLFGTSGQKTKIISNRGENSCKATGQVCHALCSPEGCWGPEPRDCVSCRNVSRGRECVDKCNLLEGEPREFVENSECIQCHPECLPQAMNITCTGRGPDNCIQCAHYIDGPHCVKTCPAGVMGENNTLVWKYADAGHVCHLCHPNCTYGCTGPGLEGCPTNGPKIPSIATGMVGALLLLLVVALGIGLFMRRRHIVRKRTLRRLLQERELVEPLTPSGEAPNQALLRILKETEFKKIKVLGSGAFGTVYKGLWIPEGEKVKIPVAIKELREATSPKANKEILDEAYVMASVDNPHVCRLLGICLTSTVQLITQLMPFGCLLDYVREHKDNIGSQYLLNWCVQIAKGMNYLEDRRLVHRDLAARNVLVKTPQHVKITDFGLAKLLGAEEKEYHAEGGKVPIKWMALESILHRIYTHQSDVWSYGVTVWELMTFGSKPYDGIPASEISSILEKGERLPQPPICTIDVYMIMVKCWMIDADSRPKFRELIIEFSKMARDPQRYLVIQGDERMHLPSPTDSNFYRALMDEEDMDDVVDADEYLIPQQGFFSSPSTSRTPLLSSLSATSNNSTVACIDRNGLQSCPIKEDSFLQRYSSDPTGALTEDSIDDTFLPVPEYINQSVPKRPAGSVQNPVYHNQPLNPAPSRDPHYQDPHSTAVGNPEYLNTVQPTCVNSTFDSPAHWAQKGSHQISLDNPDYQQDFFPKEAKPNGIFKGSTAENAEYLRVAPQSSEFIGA
SMILES,IC50 [1] [µM],IC50 [2] [µM],pIC50 [3],pIC50 [4]
O=C(Nc1ccc(F)cc1)Nc1ncnc2nn3ccccc3c12,> 10,0.631,–,–
c1ccc(Cc2nc3ccc(Nc4ncnc5nn6ccccc6c45)cc3[nH]2)cc1,–,–,5.80,5.30
Nc1ncnc2nn3ccccc3c12,–,–,< 5.00,< 5.00
O=C(Nc1ccc(Br)cc1)Nc1ncnc2nn3ccccc3c12,1,3.98,–,–
N#Cc1cccc(NC(=O)Nc2ncnc3nn4ccccc4c23)c1,0.126,0.2,–,–
Clc1cc(Nc2ncnc3nn4ccccc4c23)ccc1OCc1ccccc1,–,–,6.70,7.30
O=C(Nc1cccc(C(F)(F)F)c1)Nc1ncnc2nn3ccccc3c12,0.158,0.251,–,–
O=C(Nc1cccc([N+](=O)[O-])c1)Nc1ncnc2nn3ccccc3c12,0.316,> 10,–,–
O=C(Nc1ccc(C(F)(F)F)cc1)Nc1ncnc2nn3ccccc3c12,1.58,3.98,–,–
